For data set [1], the system named is PC cells (PC-3 and PC-3m). Nature of the data set: colony formation assay (soft agar culture). Type of data set: cell-based, human. Particulars: 2 weeks. The procedure: 2) Colony formation assay. The colony formation assay was performed using soft agar culture method. 9 different groups were included in the assay: {circle over (1)}MTX+PC cell, {circle over (2)}MTX-α-Phe+PC cell, {circle over (3)}fusion protein+PC cell, {circle over (4)}MTX-α-Phe+CP-A+PC cell, {circle over (5)}MTX-α-Phe+fusion protein+PC cell, {circle over (6)}MTX-α-Arg+PC cell, {circle over (7)}MTX-α-Arg+CP-A+PC cell, {circle over (8)}MTX-α-Arg+fusion protein+PC cell and {circle over (9)}control group (PC cell only). All the tested prodrugs were used in three different concentrations, i.e. each of MTX, MTX-α-Phe and MTX-α-Arg was used at 0.4, 4, and 40 μg/ml. CP-A was used in a volume of 10 μl (2.5 mU/μl) and fusion protein was used in a volume of 10 μl (1 mg/ml). The density of PC cell was 200/well. The plate was incubated in a CO2 incubator at 37° C. for 2 weeks. After incubation, PC cells were fixed by a mixture of acetic acid and ethanol (1:3) for 2 h. Then microscopy was employed to calculate the percentage of colony formation.

The subject of another data set is PC-3m tumor. Particulars: for histopathologic examination of tumors: after 5 weeks of treatment; for average survival time / lifespan: from beginning of treatment till natural death. The procedure:
Tumor Model: BALB/C nude mice aged 4-6 weeks and weight at 16-20 g were provided by the Experimental Animal Center of the Fourth Military Medical University (Xi'an, China) and bred in a sterile isolator. They were derma-inoculated with 0.1 ml of PC-3m suspension (1×10^7 cells). The drugs were administrated when the volume of tumor was approximately 0.5 cm^3.
1) Groups and treatments. 56 nude mice carrying tumors were randomized into 7 groups: {circle over (1)}Control group, intravenously administered with 0.5 ml of saline; {circle over (2)}Treatment Group I, intravenously administered with MTX (5 mg/kg); {circle over (3)}Treatment Group II, intravenously administered with MTX-α-Phe (5.32 mg/kg) {circle over (4)}Treatment Group III, intravenously administered with 0.5 ml of anti-γ-SmMcAb-CP-A; {circle over (5)}Treatment Group IV, intravenously administered with 0.5 ml of the fusion protein; {circle over (6)}Treatment Group V, intravenously administered with 0.5 ml of γ-SmMcAb-CP-A first and MTX-α-Phe (5.32 mg/kg) 72 h later (ADEPT-1); {circle over (7)}Treatment Group VI, intravenously administered with 0.5 ml of the fusion protein first and MTX-α-Phe (5.32 mg/kg) 72 h later (ADEPT-2).
Tumor-inhibition rate: The major diameter and minor diameter of the tumor were measured every week after the administration of drugs. The mass of tumor (m=½×major diameter×minor diameter^2) and tumor-inhibition rate (TIR) was thus calculated according the following formula. [formula]
Cell cycle of tumor cells is calculated by the formula: tc=[lg(1+G)/lg(m2/m1)]×t (G: a component of the tumor growth group; m2, m1: tumor mass of a given component of the group observed at different time points; t: interval between observations).
Survival time of the nude mice refers to the period from the beginning of the treatment till natural death.
Histopathologic observation includes gross specimen examination and microscopic examination. Samples of tumor and organs were fixed with 100 ml/L formalin. Pathologic section was stained […] underwent microscopy observation.

The subject of data set [2] is PC cells (PC-3 and PC-3m). The experiment in a line: cell cycle kinetic analysis by flow cytometry. Type of data set: cell-based, human. The procedure:
3) Kinetic effects of the fusion protein/prodrug on the growth cycle of PC cells: PC-3 and PC-3m cells were added to several 10 ml culture flasks (10^6/ml). MTX, MTX-α-Arg, MTX-α-Phe+CP-A, MTX-α-Phe+fusion protein at different concentrations were added to the flasks, respectively. The cells were collected at 6 h, 16 h and 24 h after the addition of the tested drugs and washed twice with cold saline and then fixed with 950 ml/L ethanol. The cells were stained by routine DNA staining method. Flow cytometry was employed in the kinetic analysis (FACS Profile II; Laser rate: 15 mW; Green light filter: 488 nm).
A general note: Flow cytometry measures light scatter and fluorescence of single cells or particles in a stream.

The test system of data set [3] is PC cells (PC-3 and PC-3m). The class given is cell-based. Particulars: MTT, 48 h; for lethal / cytotoxic effect to PC cells: lethal curves. The procedure:
1) MTT assay: PC-3 and PC-3m cells were seeded separately to a 96-well plate at 1×10^4 cells/ml/well. MTX, MTX-α-Phe, MTX-α-Phe+CP-A, MTX-α-Phe+fusion proteins and MTX-α-Arg, MTX-α-Arg+fusion proteins at different concentrations were also added into those wells. 3 parallel wells were set for each concentration. The cells were incubated in a CO2 incubator for 48 h. 20 μl of a solution of thiazole blue in PBS (5 mg/ml) was added to each well and incubated at 37° C. for 4 h. The culture medium and free thiazole blue were discarded and 0.1 ml of dimethylsulfoxide was added to each well. The absorbance at 405 nm was measured and mortality rate was calculated.

Usually IC50 stands for the concentration needed to halve the response being measured.

SMILES strings stand for the structures.

Consider `CN(Cc1cnc2nc(N)nc(N)c2n1)c1ccc(C(=O)N[C@@H](CCC(=O)O)C(=O)O)cc1` [MTX, Methotrexate], for which the “colony formation” value in data set [1] (P<0.001) is “none of these groups had any colony formed”. For the same molecule, in the data set on PC-3m tumor, the “histopathologic examination of tumors” value was “a large area of necrosis in the tumors” and the “average survival time / lifespan” value turned out to be 67 ± 13.8 days. Also, the volume of tumors result with PC-3m tumor (by the 6th week) was “significantly smaller than that in other groups”. Moreover, the growth of tumors result in the data set with PC-3m tumor (from the 2nd week on) is reported as “decreased”. In the data set on PC-3m tumor (mouse, in vivo), the “living quality of mice” value is on record as “poor living quality”, the “tumor cell growth cycle” value is given as 2.5±0.2 and the whole blood count entry is on record as “significantly lower than that of the ADEPT groups”. Also, the cell proliferation index result in data set [2] was “decreased significantly”.

As to `CN(Cc1cnc2nc(N)nc(N)c2n1)c1ccc(C(=O)NC(CCC(=O)O)C(=O)NC(CCCNC(=N)N)C(=O)O)cc1` (stereo not drawn) [MTX-α-Arg], in data set [1], the colony-formation rate came out at 91%. Further, the “lethal / cytotoxic effect to PC cells” value in data set [3] is given as “no lethal effect”.

`CN(Cc1cnc2nc(N)nc(N)c2n1)c1ccc(C(=O)N[C@@H](CCC(=O)O)C(=O)N[C@@H](Cc2ccccc2)C(=O)O)cc1` [MTX-α-Phe, methotrexate-α-phenylalanine] displayed a colony-formation rate in data set [1] of 88%. Also, the “tumor size compared with control” value in the data set with PC-3m tumor (P>0.05) is reported as “small compared with that of the control but the difference was not significant”. Besides, in the data set on PC-3m tumor, the “histopathologic examination of tumors” value was “characteristics typical of adenocarcinoma” and the “average survival time / lifespan” value is 31 ± 12.2 days. Moreover, the “tumor cell growth cycle” value with PC-3m tumor (mouse, in vivo) is 1.7±0.2. Besides, the “kinetic change of cell cycle” value in data set [2] is recorded as “did not show any significant kinetic change”. For the same molecule, in data set [3], the “lethal / cytotoxic effect to PC cells” value is reported as “no lethal effect”. Further, the concentration for half-maximal inhibition (IC50) in data set [3] (PC cells, read-out: IC50 of the prodrug) was found to be 72 mM.

The record behind these values is patent US20050053611A1, “Pharmaceutical kit comprising anti-human seminal plasma protein single chain antibody/human carboxypeptidase fusion protein and prodrug” (priority 2001, published 2005).
